#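 Grown in 96-well plates, cells were treated for 48 hours with each compound at five concentrations. Insufficient inhibition: endpoint recorded as highest concentration tested. At the GI50, growth is halved. Definition used: TGI = concentration required for complete inhibition of growth.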
# Assays:
# Assay in all cases: NCI anticancer screen, dose series, 48 h
# A498 renal = tested on: A498 renal
# K-562 leukemia = tested on: K-562 leukemia
# ACHN renal = tested on: ACHN renal
# NCI-H522 lung = tested on: NCI-H522 lung
# TK-10 renal = tested on: TK-10 renal
# SF-268 CNS = tested on: SF-268 CNS
# NCI-H23 lung = tested on: NCI-H23 lung
# IGROV1 ovarian = tested on: IGROV1 ovarian
# HL-60(TB) leukemia = tested on: HL-60(TB) leukemia
# OVCAR-5 ovarian = tested on: OVCAR-5 ovarian
# OVCAR-3 ovarian = tested on: OVCAR-3 ovarian
# KM12 colon = tested on: KM12 colon
# SN12C renal = tested on: SN12C renal
# OVCAR-8 ovarian = tested on: OVCAR-8 ovarian
# SF-295 CNS = tested on: SF-295 CNS
# HOP-92 NSCLC = tested on: HOP-92 NSCLC
# SK-MEL-28 melanoma = tested on: SK-MEL-28 melanoma
# SK-OV-3 ovarian = tested on: SK-OV-3 ovarian
# UACC-257 melanoma = tested on: UACC-257 melanoma
# MOLT-4 leukemia = tested on: MOLT-4 leukemia
# LXFL 529 NSCLC = tested on: LXFL 529 NSCLC
# 786-0 renal = tested on: 786-0 renal
# HCT-116 colon = tested on: HCT-116 colon
# UACC-62 melanoma = tested on: UACC-62 melanoma
# SW-620 colon = tested on: SW-620 colon
# EKVX NSCLC = tested on: EKVX NSCLC
# OVCAR-4 ovarian = tested on: OVCAR-4 ovarian
# HCC-2998 colon = tested on: HCC-2998 colon
# CAKI-1 renal = tested on: CAKI-1 renal
# M14 melanoma = tested on: M14 melanoma
# DMS 273 small cell lung = tested on: DMS 273 small cell lung
# NCI-H226 lung = tested on: NCI-H226 lung
# UO-31 renal = tested on: UO-31 renal
# M19-MEL melanoma = tested on: M19-MEL melanoma
# SF-539 CNS = tested on: SF-539 CNS
# SNB-75 CNS = tested on: SNB-75 CNS
# SNB-19 CNS = tested on: SNB-19 CNS
# NCI-H460 lung = tested on: NCI-H460 lung
# SK-MEL-2 melanoma = tested on: SK-MEL-2 melanoma
# KM20L2 colon = tested on: KM20L2 colon
# LOX IMVI melanoma = tested on: LOX IMVI melanoma
# SK-MEL-5 melanoma = tested on: SK-MEL-5 melanoma
# CCRF-CEM leukemia = tested on: CCRF-CEM leukemia
# HT29 colon = tested on: HT29 colon
# RPMI-8226 leukemia = tested on: RPMI-8226 leukemia
# A549 NSCLC = tested on: A549 NSCLC
# DLD-1 colon = tested on: DLD-1 colon
# U251 CNS = tested on: U251 CNS
# MALME-3M melanoma = tested on: MALME-3M melanoma
# COLO 205 colon = tested on: COLO 205 colon
# HOP-62 NSCLC = tested on: HOP-62 NSCLC
# DMS 114 small cell lung = tested on: DMS 114 small cell lung
# HCT-15 colon = tested on: HCT-15 colon
# SR leukemia = tested on: SR leukemia
# DU-145 prostate = tested on: DU-145 prostate
# HS 578T breast = tested on: HS 578T breast
# MCF7 breast = tested on: MCF7 breast
# T-47D breast = tested on: T-47D breast
# RXF 393 renal = tested on: RXF 393 renal
# BT-549 breast = tested on: BT-549 breast
# MDA-N = tested on: MDA-N
# PC-3 prostate = tested on: PC-3 prostate
# MDA-MB-435 = tested on: MDA-MB-435
# NCI/ADR-RES ovarian = tested on: NCI/ADR-RES ovarian
# MDA-MB-231 breast = tested on: MDA-MB-231 breast
structure (smiles),measurement,setting,value
[Cl-].[Nd+3].[O-]/N=C(\c1ccccc1)c1ccccn1.[O-]/N=C(\c1ccccc1)c1ccccn1.[O-]/N=C(\c1ccccc1)c1ccccn1,GI50,A498 renal,24.5 µM
same,TGI,A498 renal,> 100 µM
same,GI50,K-562 leukemia,34.4 µM
same,TGI,K-562 leukemia,> 100 µM
same,GI50,ACHN renal,37.8 µM
same,TGI,ACHN renal,> 100 µM
same,GI50,NCI-H522 lung,23 µM
same,TGI,NCI-H522 lung,80.1 µM
same,GI50,TK-10 renal,37.5 µM
same,TGI,TK-10 renal,> 100 µM
same,GI50,SF-268 CNS,24.8 µM
same,TGI,SF-268 CNS,85.1 µM
same,GI50,NCI-H23 lung,30.3 µM
same,TGI,NCI-H23 lung,82.7 µM
same,GI50,IGROV1 ovarian,30.6 µM
same,TGI,IGROV1 ovarian,> 100 µM
same,GI50,HL-60(TB) leukemia,16.5 µM
same,TGI,HL-60(TB) leukemia,53.6 µM
same,GI50,OVCAR-5 ovarian,31.2 µM
same,TGI,OVCAR-5 ovarian,> 100 µM
same,GI50,OVCAR-3 ovarian,17.5 µM
same,TGI,OVCAR-3 ovarian,> 100 µM
same,GI50,KM12 colon,38.8 µM
same,TGI,KM12 colon,> 100 µM
same,GI50,SN12C renal,37.2 µM
same,TGI,SN12C renal,> 100 µM
same,GI50,OVCAR-8 ovarian,34.1 µM
same,TGI,OVCAR-8 ovarian,> 100 µM
same,GI50,SF-295 CNS,22.3 µM
same,TGI,SF-295 CNS,> 100 µM
same,GI50,HOP-92 NSCLC,25 µM
same,TGI,HOP-92 NSCLC,98.3 µM
same,GI50,SK-MEL-28 melanoma,27.3 µM
same,TGI,SK-MEL-28 melanoma,85.1 µM
same,GI50,SK-OV-3 ovarian,37.1 µM
same,TGI,SK-OV-3 ovarian,> 100 µM
same,GI50,UACC-257 melanoma,33.6 µM
same,TGI,UACC-257 melanoma,99.3 µM
same,GI50,MOLT-4 leukemia,23.8 µM
same,TGI,MOLT-4 leukemia,90.2 µM
same,GI50,LXFL 529 NSCLC,40.4 µM
same,TGI,LXFL 529 NSCLC,> 100 µM
same,GI50,786-0 renal,31 µM
same,TGI,786-0 renal,82.2 µM
same,GI50,HCT-116 colon,37.6 µM
same,TGI,HCT-116 colon,> 100 µM
same,GI50,UACC-62 melanoma,28.7 µM
same,TGI,UACC-62 melanoma,> 100 µM
same,GI50,SW-620 colon,41.1 µM
same,TGI,SW-620 colon,> 100 µM
same,GI50,EKVX NSCLC,31.1 µM
same,TGI,EKVX NSCLC,> 100 µM
same,GI50,OVCAR-4 ovarian,45.1 µM
same,TGI,OVCAR-4 ovarian,> 100 µM
same,GI50,HCC-2998 colon,36.3 µM
same,TGI,HCC-2998 colon,> 100 µM
same,GI50,CAKI-1 renal,30.6 µM
same,TGI,CAKI-1 renal,> 100 µM
same,GI50,M14 melanoma,23 µM
same,TGI,M14 melanoma,45.8 µM
same,GI50,DMS 273 small cell lung,26.9 µM
same,TGI,DMS 273 small cell lung,97 µM
same,GI50,NCI-H226 lung,13.3 µM
same,TGI,NCI-H226 lung,45.6 µM
same,GI50,UO-31 renal,19.8 µM
same,TGI,UO-31 renal,56.7 µM
same,GI50,M19-MEL melanoma,25 µM
same,TGI,M19-MEL melanoma,69.8 µM
same,GI50,SF-539 CNS,23.8 µM
same,TGI,SF-539 CNS,62.2 µM
same,GI50,SNB-75 CNS,3.78 µM
same,TGI,SNB-75 CNS,17.2 µM
same,GI50,SNB-19 CNS,35.9 µM
same,TGI,SNB-19 CNS,> 100 µM
same,GI50,NCI-H460 lung,29.4 µM
same,TGI,NCI-H460 lung,> 100 µM
same,GI50,SK-MEL-2 melanoma,28 µM
same,TGI,SK-MEL-2 melanoma,66.4 µM
same,GI50,KM20L2 colon,39.1 µM
same,TGI,KM20L2 colon,> 100 µM
same,GI50,LOX IMVI melanoma,22.6 µM
same,TGI,LOX IMVI melanoma,58 µM
same,GI50,SK-MEL-5 melanoma,22.6 µM
same,TGI,SK-MEL-5 melanoma,55.4 µM
same,GI50,CCRF-CEM leukemia,16.4 µM
same,TGI,CCRF-CEM leukemia,95.3 µM
same,GI50,HT29 colon,54.2 µM
same,TGI,HT29 colon,> 100 µM
same,GI50,RPMI-8226 leukemia,39.2 µM
same,TGI,RPMI-8226 leukemia,> 100 µM
same,GI50,A549 NSCLC,33.7 µM
same,TGI,A549 NSCLC,> 100 µM
same,GI50,DLD-1 colon,39.6 µM
same,TGI,DLD-1 colon,> 100 µM
same,GI50,U251 CNS,38.9 µM
same,TGI,U251 CNS,> 100 µM
same,GI50,MALME-3M melanoma,30 µM
same,TGI,MALME-3M melanoma,96.9 µM
same,GI50,COLO 205 colon,31.2 µM
same,TGI,COLO 205 colon,> 100 µM
same,GI50,HOP-62 NSCLC,24.9 µM
same,TGI,HOP-62 NSCLC,> 100 µM
same,GI50,DMS 114 small cell lung,24.6 µM
same,TGI,DMS 114 small cell lung,79 µM
same,GI50,HCT-15 colon,31.7 µM
same,TGI,HCT-15 colon,> 100 µM
COC(=O)C(Cc1ccc2c(c1)CCCC2)Cc1cc2c(cc1C(O)OC)CCC2 (stereo not given),TGI,A498 renal,> 100 µM
same,TGI,K-562 leukemia,> 100 µM
same,TGI,ACHN renal,> 100 µM
same,TGI,NCI-H522 lung,> 100 µM
same,TGI,TK-10 renal,> 100 µM
same,TGI,SR leukemia,> 100 µM
same,TGI,DU-145 prostate,> 100 µM
same,TGI,SF-268 CNS,> 100 µM
same,TGI,NCI-H23 lung,> 100 µM
same,TGI,IGROV1 ovarian,> 100 µM
same,TGI,HL-60(TB) leukemia,56.9 µM
same,TGI,HS 578T breast,> 100 µM
same,TGI,MCF7 breast,65.1 µM
same,TGI,OVCAR-5 ovarian,> 100 µM
same,TGI,OVCAR-3 ovarian,> 100 µM
same,TGI,KM12 colon,> 100 µM
same,TGI,SN12C renal,> 100 µM
same,TGI,T-47D breast,> 100 µM
same,TGI,RXF 393 renal,67.3 µM
same,TGI,OVCAR-8 ovarian,> 100 µM
same,TGI,SF-295 CNS,> 100 µM
same,TGI,HOP-92 NSCLC,> 100 µM
same,TGI,SK-MEL-28 melanoma,> 100 µM
same,TGI,SK-OV-3 ovarian,> 100 µM
same,TGI,UACC-257 melanoma,90.4 µM
same,TGI,MOLT-4 leukemia,> 100 µM
same,TGI,786-0 renal,> 100 µM
same,TGI,HCT-116 colon,> 100 µM
same,TGI,UACC-62 melanoma,> 100 µM
same,TGI,SW-620 colon,> 100 µM
same,TGI,BT-549 breast,> 100 µM
same,TGI,EKVX NSCLC,> 100 µM
same,TGI,OVCAR-4 ovarian,> 100 µM
same,TGI,HCC-2998 colon,> 100 µM
same,TGI,MDA-N,> 100 µM
same,TGI,CAKI-1 renal,> 100 µM
same,TGI,M14 melanoma,> 100 µM
same,TGI,PC-3 prostate,> 100 µM
same,TGI,NCI-H226 lung,> 100 µM
same,TGI,UO-31 renal,> 100 µM
same,TGI,SF-539 CNS,> 100 µM
same,TGI,SNB-75 CNS,> 100 µM
same,TGI,SNB-19 CNS,> 100 µM
same,TGI,NCI-H460 lung,> 100 µM
same,TGI,SK-MEL-2 melanoma,> 100 µM
same,TGI,LOX IMVI melanoma,> 100 µM
same,TGI,SK-MEL-5 melanoma,> 100 µM
same,TGI,CCRF-CEM leukemia,> 100 µM
same,TGI,MDA-MB-435,> 100 µM
same,TGI,HT29 colon,> 100 µM
same,TGI,RPMI-8226 leukemia,> 100 µM
same,TGI,A549 NSCLC,> 100 µM
same,TGI,U251 CNS,> 100 µM
same,TGI,MALME-3M melanoma,> 100 µM
same,TGI,COLO 205 colon,> 100 µM
same,TGI,HOP-62 NSCLC,> 100 µM
same,TGI,NCI/ADR-RES ovarian,> 100 µM
same,TGI,MDA-MB-231 breast,> 100 µM
same,TGI,HCT-15 colon,> 100 µM

# — PubChem BioAssay (NCI)
